Measurements published in patent US4983582A, “Preventive and therapeutic method for hypertension” (Kao Corporation, priority 1987, dated 1991).
Entries after “also recorded” stand apart in the source; their conditions may differ.

How the values were obtained:
SHR-rat [1] = test: Example 2: systolic blood pressure in the SHR, tail artery, closed method, 15 weeks administration; assay type: in vivo; settings: for Systolic blood pressure in the SHR: average, n = 10
Method: To each group comprising 10 male SHR at the age of 9 weeks was dosed average 30 ml/day of the following aqueous solutions for 15 weeks; an aqueous solution of glucose-1-phosphate calcium (1 g/100 ml) represented by the structural formula (a), an aqueous solution of calcium lactate (0.83 g/100 ml), and an aqueous solution of hydrochlorothiazide (0.093 g/100 ml), which is one of the thiazide diuretics, while to a control group was dosed distilled water.
Systolic blood pressure was measured in a closed method in the tail artery of the subject at each time of before administration, 5 weeks of administration, and 15 weeks of administration (the measuring apparatus employed was PS-200 of Rikenkaihatsu Co.).

SHR-rat [2] = test: Example 1: systolic blood pressure of SHR-rat at tail, 3 months oral administration; assay type: in vivo; settings: 3 ml/day per orally, average, n = 10
Method: To each group comprising 10 male SHR of approx. 300 g of the body weight was per orally dosed 3 ml/day of the following aqueous solutions for 3 months;
an aqueous solution of glucose-1-phosphate calcium (2 g/100 ml) represented by the structural formula (a), and
an aqueous solution of glucose-1-phosphate calcium containing compounds of the general formulas (a) and (b) in the weight ratio of 9:1,
while to a control group was given distilled water.
The systolic blood pressure was measured at the tail of each subject, every one, two and three months of the administration period.

[3] = Japanese Patent Publication No. 46-7599 for dental caries; cited from earlier work
[4] = acute toxicity on peroral dosing to a mouse; settings: in vivo, po, perorally, read-out: peroral dose at which it exhibits an acute toxicity
[5] = 5 weeks after, average 30 ml/day, glucose-1-phosphate calcium 1 g/100 ml, calcium lactate 0.83 g/100 ml, hydrochlorothiazide 0.093 g/100 ml, control 203
[6] = 15 weeks after, average 30 ml/day, glucose-1-phosphate calcium 1 g/100 ml, calcium lactate 0.83 g/100 ml, hydrochlorothiazide 0.093 g/100 ml, control 211
[7] = before administration, control 197

Structure (SMILES): NS(=O)(=O)c1cc2c(cc1Cl)NCNS2(=O)=O [Hydrochlorothiazide, hydrochlorothiazide]
- Systolic blood pressure in the SHR (SHR-rat [1]; [5]): 175
- Systolic blood pressure in the SHR (SHR-rat [1]; [6]): 188
- Systolic blood pressure in the SHR (SHR-rat [1]; [7]): 200

Structure (SMILES): O=P(O)(O)OC1O[C@H](CO)[C@@H](O)[C@H](O)[C@H]1O (stereo partly drawn) [Glucose-1-phosphate calcium (a), glucose-1-phosphate calcium]
- Systolic blood pressure in the SHR (SHR-rat [1]; [5]): 175
- Systolic blood pressure in the SHR (SHR-rat [1]; [6]): 185
- Systolic blood pressure in the SHR (SHR-rat [1]; [7]): 199
- Systolic blood pressure of SHR-rat at tail (SHR-rat [2]; 1 month, control 150): 148
- Systolic blood pressure of SHR-rat at tail (SHR-rat [2]; 2 months, control 187): 153
- Systolic blood pressure of SHR-rat at tail (SHR-rat [2]; 3 months, control 215): 155

Structure (SMILES): O=P(O)(O)OC1O[C@H](CO)[C@@H](O)[C@H](O)[C@H]1O (stereo partly drawn) [glucose-1-phosphate calcium]
- physiological effects already reported [3]: effect of inhibiting dental caries; also recorded: cartilage-calcification promotion effect; also recorded: fatigue-recuperation effect
- reduction of the systolic blood pressure of SHR-rat compared with hydrochlorothiazide (SHR-rat [1]; SHR-rat, Table 2): substantially in the same extent as hydrochlorothiazide
- LD50 [4]: ≥ 15000 mg/kg

Structure (SMILES): CC(O)C(=O)O (stereo not drawn) [Calcium lactate, calcium lactate]
- Systolic blood pressure in the SHR (SHR-rat [1]; [5]): 190
- Systolic blood pressure in the SHR (SHR-rat [1]; [6]): 204
- Systolic blood pressure in the SHR (SHR-rat [1]; [7]): 198
